Assay results taken from US20250041204A1, “COMPOSITION COMPRISING LACTOBACILLUS CRISPATUS BACTERIAL LYSATES AND/OR BACTERIA FOR IMPROVING SKIN CONDITION” (BIOTIX PTE LTD, priority 2021, published 2025).

What was measured:
[1] = tested on: primary adult keratinocytes (NHEK); assay: In vitro irritation model (SDS, MTT survival); assay type: cell-based; settings: for protection of keratinocytes from SDS induced cell damage: in vitro irritant test, comparison of active principles
Method: Next, the functional effects of L. Crispatus in keratinocytes was investigated using an in vitro irritation model using primary adult keratinocytes (NHEK).
Primary keratinocytes from passage 2 to 3 were cultured in 96 well plates at a seed concentration of 7,000 cells/well and cultured in complete keratinocyte medium. […] After 2 hours pre incubation, cells were treated with SDS. 2 hours later MTT was added to the culture and incubated for further 2 hours for a total incubation time of 6 hours. After incubation, the MTT assay was developed according to manufacturing instruction and O.D was measured in a 96 well plate reader to determine the survival rate of the keratinocytes.

[2] = tested on: skin of healthy volunteers; assay: Skin irritant test in healthy volunteers (occlusive plaster on forearm); assay type: in vivo, human; settings: SDS 4% in PBS alone, 24 hours occlusion
Method: The same amount of each solution was applied to a plaster with a dimension of 1 cm^2. The plasters containing the solutions were then applied on the forearm of healthy donors in occlusion to increase penetration of the solution into the skin. 24 hours after application, the plasters were removed, pictures were recorded and irritation was evaluated by blinded dermatologists.

| Compound | protection of keratinocytes from SDS induced cell damage [1] | skin inflammation (erythema and immune cell infiltration) [2] | survival rate ([1]; SDS alone, 6 to 8 hours incubation, MTT) |
| --- | --- | --- | --- |
| CC(C)(CO)[C@@H](O)C(=O)NCCCO [Panthenol] | not any other active principle protected | – | – |
| CCCCCCCCCCCCOS(=O)(=O)[O-].[Na+] [SDS] | – | induced skin inflammation in all the individuals | 0% |
| Ceramides | not any other active principle protected | – | – |
